The source of these data is patent US8569383B2, “Utilization of rhinologically active substances” (Symrise AG, priority 2000, dated 2013).

The assay can be described thus: Sensory test of toothpaste with eucalyptus menthol type flavoring by trained expert panel. The conditions noted are these: compared with 1-menthyl methyl ether. In kind it is in vivo. The procedure:
Production of a Toothpaste Flavoring of the Eucalyptus Menthol Type, Using Menthyl Methyl Ether
The following were mixed:
In a second mixture batch, the 1,8-cineole (eucalyptol) content was replaced by 1-menthyl methyl ether. Both flavorings are incorporated at a concentration of 1.3% by weight into a standard toothpaste mix based on silicic acid. Both types of toothpaste were tested under conditions of practice by an expert panel trained in sensory testing.
Regarding `COC(C)C1CCCC(C)(C)C1` (stereo not drawn) [1-(3,3-Dimethylcyclohexyl)ethyl methyl ether], the “sensory effects when used instead of 1-menthyl methyl ether” value is “Comparable effects”.
In the case of `C=C(C)C1CCC(C)CC1OC` (stereo not drawn) [isopulegyl methyl ether, Isopulegyl methyl ether] it was “Comparable effects”; in that of `COC1CC(C)CC(C)(C)C1` (stereo not drawn) [3,3,5-trimethylcyclohexyl methyl ether], “Comparable effects”.
